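Assay format: 96-well plates, 48-hour exposure. Abbreviation: GI50, concentration required for 50% inhibition of growth.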 Active and inactive are the calls of the source. Rule as the data show it: active = GI50 up to about 1.1 µM and inactive = higher.
Key:
Experiment in all cases: NCI-60 cell line screen, 48 h
TK-10 = test system: TK-10
HOP-92 = test system: HOP-92
K562 = test system: K562
A549 = test system: A549
SK-MEL-2 = test system: SK-MEL-2
SW-620 = test system: SW-620
OVCAR-4 = test system: OVCAR-4
HL-60 = test system: HL-60
IGROV-1 = test system: IGROV-1
HCC 2998 = test system: HCC 2998
ACHN = test system: ACHN
RXF 631 = test system: RXF 631
UACC-62 = test system: UACC-62
A498 = test system: A498
M14 = test system: M14
NCI-H226 = test system: NCI-H226
SF-539 = test system: SF-539
UO-31 = test system: UO-31
SNB-75 = test system: SNB-75
SNB-78 = test system: SNB-78
OVCAR-3 = test system: OVCAR-3
SK-MEL-28 = test system: SK-MEL-28
NCI-H460 = test system: NCI-H460
HCT-15 = test system: HCT-15
SNB-19 = test system: SNB-19
786-0 = test system: 786-0
SK-MEL-5 = test system: SK-MEL-5
XF498 = test system: XF498
EKVX = test system: EKVX
HOP-18 = test system: HOP-18
U-251 = test system: U-251
NCI-H522 = test system: NCI-H522
COLO 205 = test system: COLO 205
UACC-257 = test system: UACC-257
KM-20L2 = test system: KM-20L2
HCT-116 = test system: HCT-116
KM12 = test system: KM12
LOX IMVI = test system: LOX IMVI
SF-295 = test system: SF-295
NCI-H23 = test system: NCI-H23
SN12C = test system: SN12C
OVCAR-8 = test system: OVCAR-8
SF-268 = test system: SF-268
SK-OV-3 = test system: SK-OV-3
CCRF-CEM = test system: CCRF-CEM
HT-29 = test system: HT-29
MOLT-4 = test system: MOLT-4
RXF 393 = test system: RXF 393
DMS-273 = test system: DMS-273
M19-MEL = test system: M19-MEL
DMS-114 = test system: DMS-114
HOP-62 = test system: HOP-62
RPMI-8226 = test system: RPMI-8226
CAKI-1 = test system: CAKI-1
OVCAR-5 = test system: OVCAR-5
Malme-3M = test system: Malme-3M
DLD-1 = test system: DLD-1
LXFL 529 = test system: LXFL 529

SMILES: COc1cc([C@@H]2OC(=O)C3C2C(=O)O[C@H]3c2cc(OC)c(OC)c(OC)c2)cc(OC)c1OC (stereo partly specified)
- GI50 (TK-10): > 100 µM (inactive)
- GI50 (HOP-92): > 100 µM (inactive)
- GI50 (K562): > 100 µM (inactive)
- GI50 (A549): > 100 µM (inactive)
- GI50 (SK-MEL-2): > 100 µM (inactive)
- GI50 (SW-620): > 100 µM (inactive)
- GI50 (OVCAR-4): > 100 µM (inactive)
- GI50 (HL-60): > 100 µM (inactive)
- GI50 (IGROV-1): > 100 µM (inactive)
- GI50 (HCC 2998): > 100 µM (inactive)
- GI50 (ACHN): > 100 µM (inactive)
- GI50 (RXF 631): > 100 µM (inactive)
- GI50 (UACC-62): > 100 µM (inactive)
- GI50 (A498): > 100 µM (inactive)
- GI50 (M14): > 100 µM (inactive)
- GI50 (NCI-H226): 38.8 µM (inactive)
- GI50 (SF-539): > 100 µM (inactive)
- GI50 (UO-31): > 100 µM (inactive)
- GI50 (SNB-75): > 100 µM (inactive)
- GI50 (SNB-78): > 100 µM (inactive)
- GI50 (OVCAR-3): > 100 µM (inactive)
- GI50 (SK-MEL-28): > 100 µM (inactive)
- GI50 (NCI-H460): > 100 µM (inactive)
- GI50 (HCT-15): > 100 µM
- GI50 (SNB-19): > 100 µM (inactive)
- GI50 (786-0): > 100 µM (inactive)
- GI50 (SK-MEL-5): > 100 µM (inactive)
- GI50 (XF498): 6.08 µM (inactive)
- GI50 (EKVX): > 100 µM (inactive)
- GI50 (HOP-18): > 100 µM (inactive)
- GI50 (U-251): > 100 µM (inactive)
- GI50 (NCI-H522): > 100 µM (inactive)
- GI50 (COLO 205): > 100 µM (inactive)
- GI50 (UACC-257): > 100 µM (inactive)
- GI50 (KM-20L2): > 100 µM (inactive)
- GI50 (HCT-116): > 100 µM (inactive)
- GI50 (KM12): > 100 µM (inactive)
- GI50 (LOX IMVI): > 100 µM (inactive)
- GI50 (SF-295): > 100 µM (inactive)
- GI50 (NCI-H23): > 100 µM (inactive)
- GI50 (SN12C): > 100 µM (inactive)
- GI50 (OVCAR-8): > 100 µM (inactive)
- GI50 (SF-268): > 100 µM (inactive)
- GI50 (SK-OV-3): > 100 µM (inactive)
- GI50 (CCRF-CEM): > 100 µM (inactive)
- GI50 (HT-29): > 100 µM (inactive)
- GI50 (MOLT-4): > 100 µM (inactive)
- GI50 (RXF 393): > 100 µM (inactive)
- GI50 (DMS-273): > 100 µM (inactive)
- GI50 (M19-MEL): > 100 µM (inactive)
- GI50 (DMS-114): > 100 µM (inactive)
- GI50 (HOP-62): > 100 µM (inactive)
- GI50 (RPMI-8226): > 100 µM (inactive)

SMILES: CCNC1=Nc2ccc(Cl)cc2C(c2ccccc2)=NN1
- GI50 (TK-10): 28.4 µM (inactive)
- GI50 (HOP-92): 24.4 µM (inactive)
- GI50 (K562): 6.38 µM (inactive)
- GI50 (A549): 35.7 µM (inactive)
- GI50 (SK-MEL-2): 16.7 µM (inactive)
- GI50 (SW-620): 18 µM (inactive)
- GI50 (OVCAR-4): 31.6 µM (inactive)
- GI50 (HL-60): 22.3 µM (inactive)
- GI50 (IGROV-1): 22.4 µM (inactive)
- GI50 (HCC 2998): 18.7 µM (inactive)
- GI50 (ACHN): 31.7 µM (inactive)
- GI50 (RXF 631): 19.9 µM (inactive)
- GI50 (UACC-62): 14.6 µM (inactive)
- GI50 (A498): 29.9 µM (inactive)
- GI50 (M14): 17.3 µM (inactive)
- GI50 (NCI-H226): 20.7 µM (inactive)
- GI50 (SF-539): 19.8 µM (inactive)
- GI50 (UO-31): 30.2 µM (inactive)
- GI50 (SNB-75): 19 µM (inactive)
- GI50 (CAKI-1): 15 µM (inactive)
- GI50 (SNB-78): 25.5 µM (inactive)
- GI50 (OVCAR-3): 17.5 µM (inactive)
- GI50 (SK-MEL-28): 17.5 µM (inactive)
- GI50 (HCT-15): 16.9 µM
- GI50 (SNB-19): 41.7 µM (inactive)
- GI50 (786-0): 17.8 µM (inactive)
- GI50 (SK-MEL-5): 14.8 µM (inactive)
- GI50 (XF498): 25.8 µM (inactive)
- GI50 (EKVX): 45.9 µM (inactive)
- GI50 (HOP-18): 62.2 µM (inactive)
- GI50 (U-251): 20.5 µM (inactive)
- GI50 (NCI-H522): 14.6 µM (inactive)
- GI50 (COLO 205): 16.3 µM (inactive)
- GI50 (UACC-257): 18 µM (inactive)
- GI50 (KM12): 12.9 µM (inactive)
- GI50 (LOX IMVI): 18.9 µM (inactive)
- GI50 (SF-295): 19.2 µM (inactive)
- GI50 (NCI-H23): 27.5 µM (inactive)
- GI50 (SN12C): 32.4 µM (inactive)
- GI50 (OVCAR-8): 26.8 µM (inactive)
- GI50 (OVCAR-5): 21.8 µM (inactive)
- GI50 (SF-268): 31.3 µM (inactive)
- GI50 (SK-OV-3): 37.1 µM (inactive)
- GI50 (CCRF-CEM): 38.4 µM (inactive)
- GI50 (HT-29): 15.8 µM (inactive)
- GI50 (MOLT-4): 25.2 µM (inactive)
- GI50 (RXF 393): 25.5 µM (inactive)
- GI50 (DMS-273): 10.9 µM (inactive)
- GI50 (M19-MEL): 18.1 µM (inactive)
- GI50 (DMS-114): 15.4 µM (inactive)
- GI50 (Malme-3M): 16.9 µM (inactive)
- GI50 (HOP-62): 24.6 µM (inactive)
- GI50 (RPMI-8226): 29 µM (inactive)

SMILES: CC1=C(C(=O)Nc2ccccc2C)C(c2ccc([N+](=O)[O-])cc2)C(C(=O)Nc2ccccc2C)=C(C)N1
- GI50 (TK-10): 46.1 µM (inactive)
- GI50 (K562): 40.1 µM (inactive)
- GI50 (A549): 22.5 µM (inactive)
- GI50 (SK-MEL-2): 38.2 µM (inactive)
- GI50 (SW-620): 93.3 µM (inactive)
- GI50 (OVCAR-4): 41.8 µM (inactive)
- GI50 (HL-60): 19.8 µM (inactive)
- GI50 (IGROV-1): 78 µM (inactive)
- GI50 (HCC 2998): 47.3 µM (inactive)
- GI50 (ACHN): 30.2 µM (inactive)
- GI50 (RXF 631): 76.6 µM (inactive)
- GI50 (UACC-62): 43.9 µM (inactive)
- GI50 (A498): 14 µM (inactive)
- GI50 (M14): 39.9 µM (inactive)
- GI50 (NCI-H226): > 100 µM (inactive)
- GI50 (SF-539): 53.6 µM (inactive)
- GI50 (UO-31): 20.5 µM (inactive)
- GI50 (SNB-75): 22.8 µM (inactive)
- GI50 (CAKI-1): 36.6 µM (inactive)
- GI50 (OVCAR-3): 40.1 µM (inactive)
- GI50 (SK-MEL-28): 63.4 µM (inactive)
- GI50 (NCI-H460): 44.9 µM (inactive)
- GI50 (HCT-15): 56.5 µM
- GI50 (DLD-1): 50 µM (inactive)
- GI50 (SNB-19): 22.8 µM (inactive)
- GI50 (LXFL 529): 35.6 µM (inactive)
- GI50 (786-0): 53.3 µM (inactive)
- GI50 (SK-MEL-5): 11.3 µM (inactive)
- GI50 (XF498): 40.3 µM (inactive)
- GI50 (EKVX): > 100 µM (inactive)
- GI50 (HOP-18): 55.2 µM (inactive)
- GI50 (U-251): > 100 µM (inactive)
- GI50 (NCI-H522): 32 µM (inactive)
- GI50 (COLO 205): 29.9 µM (inactive)
- GI50 (UACC-257): 55.3 µM (inactive)
- GI50 (KM-20L2): 51.9 µM (inactive)
- GI50 (KM12): 39.3 µM (inactive)
- GI50 (LOX IMVI): 43.4 µM (inactive)
- GI50 (SF-295): 58.2 µM (inactive)
- GI50 (NCI-H23): 37.5 µM (inactive)
- GI50 (SN12C): 76.7 µM (inactive)
- GI50 (OVCAR-8): > 100 µM (inactive)
- GI50 (OVCAR-5): > 100 µM (inactive)
- GI50 (SF-268): 39.1 µM (inactive)
- GI50 (SK-OV-3): > 100 µM (inactive)
- GI50 (CCRF-CEM): 27.2 µM (inactive)
- GI50 (HT-29): 44.9 µM (inactive)
- GI50 (MOLT-4): 25.3 µM (inactive)
- GI50 (RXF 393): 16.4 µM (inactive)
- GI50 (DMS-273): 43.4 µM (inactive)
- GI50 (M19-MEL): 64.1 µM (inactive)
- GI50 (DMS-114): 33.3 µM (inactive)
- GI50 (Malme-3M): 42.7 µM (inactive)
- GI50 (HOP-62): > 100 µM (inactive)
- GI50 (RPMI-8226): 28.6 µM (inactive)

From ChEMBL document CHEMBL1201862, “PubChem BioAssay data set” (2004)
